The target in one experiment is μ opioid receptor (Homo sapiens, UniProt P35372). The experiment is described as follows: Opiate receptor binding (μ). Conditions: procedure of Wang et al. From the text: Another assay useful in the present invention concerns determining the ability of a ligand to bind to a biological receptor utilizing a technique well known in the art referred to as a radioligand binding assay. This assay accurately determines the specific binding of a radioligand to a targeted receptor through the delineation of its total and nonspecific binding components. Total binding is defined as the amount of radioligand that remains following the rapid separation of the radioligand bound in a receptor preparation (cell homogenates or recombinate receptors) from that which is unbound. The nonspecific binding component is defined as the amount of radioligand that remains following separation of the reaction mixture consisting of receptor, radioligand and an excess of unlabeled ligand. Under this condition, the only radioligand that remains represents that which is bound to components other that receptor. The specific radioligand bound is determined by subtracting the nonspecific from total radioactivity bound. For a specific example of radioligand binding assay for μ-opioid receptor, see Wang, J. B. et al. FEBS Letters 1994, 338, 217.
Sequence of μ opioid receptor (P35372 whole entry): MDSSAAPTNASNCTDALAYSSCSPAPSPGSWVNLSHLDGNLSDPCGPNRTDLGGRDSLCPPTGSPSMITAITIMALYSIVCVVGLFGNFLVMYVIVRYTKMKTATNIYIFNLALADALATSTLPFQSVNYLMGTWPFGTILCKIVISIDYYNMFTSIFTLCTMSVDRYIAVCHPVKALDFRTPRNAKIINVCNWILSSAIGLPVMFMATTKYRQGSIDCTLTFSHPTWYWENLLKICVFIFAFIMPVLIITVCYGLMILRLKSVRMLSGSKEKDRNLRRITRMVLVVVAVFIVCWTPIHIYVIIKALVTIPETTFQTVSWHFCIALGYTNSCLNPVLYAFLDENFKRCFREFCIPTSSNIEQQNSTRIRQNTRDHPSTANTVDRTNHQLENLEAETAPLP
(§1) The opioid (μ, κ, δ) receptor-binding capabilities of compounds described herein were determined according to the procedures outlined by Wang et al. (FEBS Letters 1994, 338, 217), Maguire et al. (Eur. J. Pharmacol. 1992, 213, 219), and Simonin et al. (Mol. Pharmacol. 1994, 46, 1015).

The target of a further experiment is κ opioid receptor (Cavia porcellus, UniProt P41144). The experiment is described as follows: Opiate receptor binding (κ). Conditions: procedure of Maguire et al. As to the method: as §1
Sequence of κ opioid receptor (P41144 whole entry): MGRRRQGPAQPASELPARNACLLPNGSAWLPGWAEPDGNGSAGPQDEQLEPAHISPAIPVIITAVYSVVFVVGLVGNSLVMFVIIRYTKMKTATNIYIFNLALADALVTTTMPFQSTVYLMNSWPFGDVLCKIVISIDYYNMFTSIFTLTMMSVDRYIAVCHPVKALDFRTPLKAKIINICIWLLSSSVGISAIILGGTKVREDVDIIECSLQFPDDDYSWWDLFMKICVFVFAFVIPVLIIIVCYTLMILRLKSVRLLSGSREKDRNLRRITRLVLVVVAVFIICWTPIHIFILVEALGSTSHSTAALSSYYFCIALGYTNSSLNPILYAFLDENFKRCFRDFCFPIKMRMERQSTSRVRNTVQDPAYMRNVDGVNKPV
The next experiment concerns the target δ opioid receptor (Homo sapiens, UniProt P41143). The experiment is described as follows: Opiate receptor binding (δ). The settings on record: procedure of Simonin et al. As to the method: as §1

Each structure is given as a SMILES string. pIC50: −log10 of the molar value. Some results are limits rather than exact numbers.

Sequence of δ opioid receptor (P41143 whole entry): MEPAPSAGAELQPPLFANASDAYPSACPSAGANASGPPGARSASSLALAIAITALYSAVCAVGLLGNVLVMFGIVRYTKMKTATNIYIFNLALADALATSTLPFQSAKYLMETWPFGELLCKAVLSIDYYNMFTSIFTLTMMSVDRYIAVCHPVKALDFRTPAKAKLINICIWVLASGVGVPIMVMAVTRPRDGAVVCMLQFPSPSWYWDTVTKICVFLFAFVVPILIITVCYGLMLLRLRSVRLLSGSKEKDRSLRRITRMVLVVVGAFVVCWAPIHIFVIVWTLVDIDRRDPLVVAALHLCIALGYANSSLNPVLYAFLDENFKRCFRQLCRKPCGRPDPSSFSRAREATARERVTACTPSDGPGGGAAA

On to `CCC(=O)N(CC1CCCN(CCc2ccccc2)C1)C(C)c1ccccc1` (single isomer, unassigned) [Compound 223, N-(1-Phenethyl-piperidin-3-ylmethyl)-N-(1-phenyl-ethyl)-propionamide], for which the pIC50 on μ opioid receptor is over 7.00; on κ opioid receptor it was under 6.00; at δ opioid receptor it was under 6.00.
With `CCC(=O)N(CC1CCCN(CCc2ccccc2)C1)C(C)c1ccccc1` (single isomer, unassigned) [Compound 225, N-(1-Phenethyl-piperidin-3-ylmethyl)-N-(1-phenyl-ethyl)-propionamide], the pIC50 at μ opioid receptor is over 6.00; at κ opioid receptor, under 6.00; at δ opioid receptor it was under 6.00.
Turning to `CCC(=O)N(CC1CCCN(CCc2ccccc2)C1)C(C)c1ccccc1` (single isomer, unassigned) [Compound 222, N-(1-Phenethyl-piperidin-3-ylmethyl)-N-(1-phenyl-ethyl)-propionamide], the pIC50 on μ opioid receptor, at κ opioid receptor and on δ opioid receptor was under 6.00 throughout.
Turning to `CCC(=O)N(CC1CCCN(CCc2ccccc2)C1)C(C)c1ccccc1` (single isomer, unassigned) [Compound 221, N-(1-Phenethyl-piperidin-3-ylmethyl)-N-(1-phenyl-ethyl)-propionamide], the pIC50 at μ opioid receptor was over 6.00; at κ opioid receptor, over 6.00; at δ opioid receptor, under 6.00.
As for `CCC(=O)N(CC1CCCN(CCc2ccccc2)C1)C(C)c1ccccc1` (single isomer, unassigned) [Compound 224, N-(1-Phenethyl-piperidin-3-ylmethyl)-N-(1-phenyl-ethyl)-propionamide], the pIC50 is over 6.00 on μ opioid receptor, under 6.00 on κ opioid receptor and under 6.00 on δ opioid receptor.
`CCC(=O)N(CC1CCCN(CCc2ccccc2)C1)C(C)c1ccccc1` (single isomer, unassigned) [Compound 220, N-(1-Phenethyl-piperidin-3-ylmethyl)-N-(1-phenyl-ethyl)-propionamide]: the pIC50 at μ opioid receptor is over 6.00; on κ opioid receptor, over 6.00; on δ opioid receptor it was under 6.00.

The record behind these values is patent US7361666B2, “Heterocyclic analgesic compounds and methods of use thereof” (Sepracor, Inc., priority 1999, dated 2008).
